Experimental data reported in patent US10849880B2, “Pharmaceutical composition” (FUJIFILM Toyama Chemical Co., Ltd., priority 2016, dated 2020).

Columns and labels:
[1] = Evaluation of degradation material: stress test at 70° C. for 7 days, HPLC; format: physicochemical; details: class of degradation material after 70° C.
Description: The prepared solid pharmaceutical composition was subjected to a stress test that it was stored in a thermostat at 70° C. for 7 days. The storage stability was evaluated in terms of the amount of compound A decomposed by the following method.
The above stored solid pharmaceutical composition was adjusted with water/acetonitrile/pH 3.0 phosphate buffer (450:50:1) such that the maleate of compound A had 333 μg/mL and was filtered through a membrane filter to obtain a filtrate. The degradation material of compound A was quantified by high performance liquid chromatography (HPLC). The amount of the degradation material detected at a relative retention time of 0.94 with respect to compound A was quantified as the degradation material of compound A under the following measurement conditions.
(HPLC Measurement Condition)
Evaluation criteria for the degradation material are as follows:
Evaluation was performed in the same manner as described in Examples 1-19 and Comparative Examples 1-14.

[2] = pH of maleate of compound A and additive dissolved or suspended in 10 mmol/L KCl solution; format: physicochemical; details: maleate of compound A 1 mg/mL with additive
Description: The pH was measured when the maleate of compound A and the additive were dissolved or suspended in a 10 mmol/L KCl solution in such a way as to reach the respective numerical values shown in Table 2 to Table 6.

- Evaluation of degradation material [1]: A (Less than 0.25%)
- pH [2]: 4.5
SMILES: OC1CN(CCCOCCc2ccc3sccc3c2)C1 [compound 14, 1-(3-(2-(1-benzothiophen-5-yl)ethoxy)propyl)azetidin-3-ol]
